Laboratory results from the NIST ThermoML archive (doi:10.1021/je300945r).

F/C=C/C(F)(F)F [trans-1,3,3,3-tetrafluoropropene]
Settings | mass density [kg/m3]
323.14 K, 8751 kPa, Liquid, Vibrating tube method | 1126.4
323.14 K, 9772 kPa, Liquid, Vibrating tube method | 1131.9
323.14 K, 12808 kPa, Liquid, Vibrating tube method | 1147.2
323.14 K, 13808 kPa, Liquid, Vibrating tube method | 1151.8
323.14 K, 14826 kPa, Liquid, Vibrating tube method | 1156.4
323.14 K, 15836 kPa, Liquid, Vibrating tube method | 1160.8
323.14 K, 16839 kPa, Liquid, Vibrating tube method | 1165
323.14 K, 17853 kPa, Liquid, Vibrating tube method | 1169.1
323.14 K, 18870 kPa, Liquid, Vibrating tube method | 1173.1
323.14 K, 19877 kPa, Liquid, Vibrating tube method | 1177
323.14 K, 20888 kPa, Liquid, Vibrating tube method | 1180.8
323.14 K, 25937 kPa, Liquid, Vibrating tube method | 1198.3
323.14 K, 26941 kPa, Liquid, Vibrating tube method | 1201.5
323.14 K, 29967 kPa, Liquid, Vibrating tube method | 1210.9
323.15 K, 10784 kPa, Liquid, Vibrating tube method | 1137.3
323.15 K, 11798 kPa, Liquid, Vibrating tube method | 1142.3
323.15 K, 21901 kPa, Liquid, Vibrating tube method | 1184.5
323.15 K, 22914 kPa, Liquid, Vibrating tube method | 1188
323.15 K, 23918 kPa, Liquid, Vibrating tube method | 1191.5
323.15 K, 24922 kPa, Liquid, Vibrating tube method | 1194.9
323.15 K, 27947 kPa, Liquid, Vibrating tube method | 1204.7
323.15 K, 28950 kPa, Liquid, Vibrating tube method | 1207.8
323.15 K, 30984 kPa, Liquid, Vibrating tube method | 1213.9
323.15 K, 31990 kPa, Liquid, Vibrating tube method | 1216.9
323.15 K, 33002 kPa, Liquid, Vibrating tube method | 1219.7
323.15 K, 34015 kPa, Liquid, Vibrating tube method | 1222.6
324.12 K, 770.9 kPa, Gas, isochoric method | 38.462
324.12 K, 771 kPa, Gas, isochoric method | 38.462
325.11 K, 605.5 kPa, Gas, isochoric method | 28.571
333.07 K, 79.2 kPa, Gas, isochoric method | 3.311
333.07 K, 288 kPa, Gas, isochoric method | 12.346
333.07 K, 488.2 kPa, Gas, isochoric method | 21.739
333.08 K, 180.4 kPa, Gas, isochoric method | 7.634
333.09 K, 428.5 kPa, Gas, isochoric method | 19.231
333.09 K, 624.8 kPa, Gas, isochoric method | 28.571
333.09 K, 685.9 kPa, Gas, isochoric method | 32.258
333.09 K, 801.3 kPa, Gas, isochoric method | 38.462
333.09 K, 801.4 kPa, Gas, isochoric method | 38.462
333.09 K, 875.5 kPa, Gas, isochoric method | 43.478
333.1 K, 875.5 kPa, Gas, isochoric method | 43.478
333.15 K, 10813 kPa, Liquid, Vibrating tube method | 1108.1
333.15 K, 15858 kPa, Liquid, Vibrating tube method | 1134.8
333.15 K, 17873 kPa, Liquid, Vibrating tube method | 1144.2
333.15 K, 18876 kPa, Liquid, Vibrating tube method | 1148.5
333.15 K, 19891 kPa, Liquid, Vibrating tube method | 1152.9
333.15 K, 20898 kPa, Liquid, Vibrating tube method | 1157
333.15 K, 21900 kPa, Liquid, Vibrating tube method | 1161
333.15 K, 22913 kPa, Liquid, Vibrating tube method | 1165
333.15 K, 23923 kPa, Liquid, Vibrating tube method | 1168.8
333.15 K, 24932 kPa, Liquid, Vibrating tube method | 1172.5
333.15 K, 25940 kPa, Liquid, Vibrating tube method | 1176.1
333.15 K, 26944 kPa, Liquid, Vibrating tube method | 1179.7
333.15 K, 27958 kPa, Liquid, Vibrating tube method | 1183
333.15 K, 28967 kPa, Liquid, Vibrating tube method | 1186.4
333.15 K, 29982 kPa, Liquid, Vibrating tube method | 1189.8
333.15 K, 30988 kPa, Liquid, Vibrating tube method | 1193
333.15 K, 31995 kPa, Liquid, Vibrating tube method | 1196.1
333.15 K, 33006 kPa, Liquid, Vibrating tube method | 1199.3
333.15 K, 34013 kPa, Liquid, Vibrating tube method | 1202.3
333.16 K, 1380 kPa, Liquid, Vibrating tube method | 1031.7
333.16 K, 1683 kPa, Liquid, Vibrating tube method | 1035.2
333.16 K, 2698 kPa, Liquid, Vibrating tube method | 1046.3
333.16 K, 3721 kPa, Liquid, Vibrating tube method | 1056.4
333.16 K, 4755 kPa, Liquid, Vibrating tube method | 1065.6
333.16 K, 5766 kPa, Liquid, Vibrating tube method | 1073.9
333.16 K, 6767 kPa, Liquid, Vibrating tube method | 1081.5
333.16 K, 7784 kPa, Liquid, Vibrating tube method | 1088.8
333.16 K, 8801 kPa, Liquid, Vibrating tube method | 1095.7
333.16 K, 9801 kPa, Liquid, Vibrating tube method | 1102
333.16 K, 11831 kPa, Liquid, Vibrating tube method | 1114
333.16 K, 12847 kPa, Liquid, Vibrating tube method | 1119.5
333.16 K, 13849 kPa, Liquid, Vibrating tube method | 1124.8
333.16 K, 14855 kPa, Liquid, Vibrating tube method | 1129.9
333.16 K, 16870 kPa, Liquid, Vibrating tube method | 1139.6
343.03 K, 81.6 kPa, Gas, isochoric method | 3.3
343.03 K, 297.5 kPa, Gas, isochoric method | 12.346
343.04 K, 81.7 kPa, Gas, isochoric method | 3.3
343.04 K, 186.1 kPa, Gas, isochoric method | 7.634
343.04 K, 505.6 kPa, Gas, isochoric method | 21.739
343.04 K, 648.5 kPa, Gas, isochoric method | 28.571
343.05 K, 443.5 kPa, Gas, isochoric method | 19.231
343.06 K, 713 kPa, Gas, isochoric method | 32.258
343.06 K, 713.1 kPa, Gas, isochoric method | 32.258
343.06 K, 913.4 kPa, Gas, isochoric method | 43.478
343.06 K, 913.5 kPa, Gas, isochoric method | 43.478
343.15 K, 834.9 kPa, Gas, isochoric method | 38.462
343.15 K, 835 kPa, Gas, isochoric method | 38.462
343.15 K, 1625 kPa, Liquid, Vibrating tube method | 984.2
343.15 K, 2607 kPa, Liquid, Vibrating tube method | 999.1
343.15 K, 3648 kPa, Liquid, Vibrating tube method | 1012.8
343.15 K, 4690 kPa, Liquid, Vibrating tube method | 1024.7
343.15 K, 5696 kPa, Liquid, Vibrating tube method | 1035.1
343.15 K, 6697 kPa, Liquid, Vibrating tube method | 1044.5
343.15 K, 7717 kPa, Liquid, Vibrating tube method | 1053.2
343.15 K, 8731 kPa, Liquid, Vibrating tube method | 1061.4
